In ChEMBL document CHEMBL1201862, “PubChem BioAssay data set” (2004):
Calls of active or inactive are those of the source.

Columns and labels:
[1] = blockers of CRF-binding protein–CRF-R2 complex – cell-based, uHTS hits, 384-well, dose response (AID 651639); type: functional, Homo sapiens; conditions: read-out: IC50_Mean
BJ [2] = test: cells; type: functional, cell-based; conditions: Homo sapiens
BJ [3] = test: BJ-TERT-LT-ST fibroblast viability loss – cell-based, RAS-independent, luminescence, dose response (AID 1935); type: functional; conditions: Homo sapiens;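 further: BJ fibroblasts immortalized with TERT plus LT and ST oncogenes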
BJ [4] = test: BJ-TERT fibroblast viability loss – cell-based, RAS-independent, luminescence, dose response (AID 1933); type: functional; conditions: Homo sapiens
[5] = target: T1, RNA-binding protein pos-1 (Caenorhabditis elegans, UniProt G5EF15); test: disruptors of C. elegans POS-1 RNA interaction – biochemical, fluorescence polarization, dose response (AID 1964);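 further: purified POS-1 fused to maltose binding protein made in E. coli; potency of compounds blocking POS-1 binding to fluorescent RNA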
T1 sequence (G5EF15 whole entry): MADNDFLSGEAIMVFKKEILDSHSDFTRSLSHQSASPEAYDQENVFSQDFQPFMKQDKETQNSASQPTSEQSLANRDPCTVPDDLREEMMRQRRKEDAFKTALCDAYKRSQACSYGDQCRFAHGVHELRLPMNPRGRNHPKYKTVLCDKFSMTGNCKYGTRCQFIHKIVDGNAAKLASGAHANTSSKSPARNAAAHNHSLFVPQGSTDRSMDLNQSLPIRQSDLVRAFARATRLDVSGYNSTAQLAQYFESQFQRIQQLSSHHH

[6] = NIH-3T3 fibroblast cytotoxicity, dose response, cytotoxicity control, cell-based, fluorescence, Alamar Blue, secondary assay (AID 2327); type: functional;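 further: NIH-3T3 mouse fibroblasts cultured with fluconazole at 8 µg/mL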
[7] = target: T2, Zinc finger protein mex-5 (Caenorhabditis elegans, UniProt Q9XUB2); test: potency of MEX-5 RNA-binding blockers – biochemical, C. elegans, fluorescence polarization, dose response (AID 1960)
T2 sequence (Q9XUB2 whole entry): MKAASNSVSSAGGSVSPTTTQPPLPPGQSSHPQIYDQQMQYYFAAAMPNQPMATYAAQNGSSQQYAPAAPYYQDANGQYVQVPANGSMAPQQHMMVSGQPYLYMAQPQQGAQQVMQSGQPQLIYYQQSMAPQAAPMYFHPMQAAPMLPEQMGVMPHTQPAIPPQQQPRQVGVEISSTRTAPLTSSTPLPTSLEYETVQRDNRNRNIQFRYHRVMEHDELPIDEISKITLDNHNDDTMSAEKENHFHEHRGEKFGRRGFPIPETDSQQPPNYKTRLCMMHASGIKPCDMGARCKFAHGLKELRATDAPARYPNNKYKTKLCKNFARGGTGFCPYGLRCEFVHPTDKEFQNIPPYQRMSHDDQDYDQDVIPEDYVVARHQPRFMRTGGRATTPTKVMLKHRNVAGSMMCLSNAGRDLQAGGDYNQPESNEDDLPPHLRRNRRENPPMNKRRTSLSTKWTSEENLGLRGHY

[8] = fluconazole-exposed Candida albicans growth modulators – fluorescence, retest, confirmation (AID 2467); type: functional, cell-based
[9] = target: Photoreceptor-specific nuclear receptor (Homo sapiens, UniProt Q9Y5X4); type: functional, cell-based;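 further: CHO-S cells with Gal4-NCOR and VP16-NR2E3 two-hybrid luciferase reporter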
Chain of Photoreceptor-specific nuclear receptor (Q9Y5X4 whole entry, the tested form may be a part): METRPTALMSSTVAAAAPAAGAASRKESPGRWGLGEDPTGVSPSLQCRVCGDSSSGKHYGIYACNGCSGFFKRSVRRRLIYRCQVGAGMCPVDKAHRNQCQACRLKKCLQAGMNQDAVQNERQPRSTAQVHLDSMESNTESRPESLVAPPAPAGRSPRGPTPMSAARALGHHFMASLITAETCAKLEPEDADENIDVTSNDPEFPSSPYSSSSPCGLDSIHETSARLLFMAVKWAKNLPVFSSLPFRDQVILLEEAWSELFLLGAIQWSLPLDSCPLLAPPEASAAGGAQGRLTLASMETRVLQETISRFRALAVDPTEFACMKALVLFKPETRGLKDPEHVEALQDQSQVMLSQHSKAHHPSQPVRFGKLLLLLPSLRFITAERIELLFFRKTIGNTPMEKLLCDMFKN

[10] = tested on: Streptococcus sp. 'group A'; test: Streptococcus pyogenes SK(-)GAS viability under kanamycin – luminescence, BacTiterGlo, confirmation, counter-screen for streptokinase expression inhibitor project, dose response (AID 1900); type: functional, organism-based
BJ [11] = test: growth inhibition of engineered Ras-driven BJ cells – cell-based, alamar blue fluorescence, cherrypicked samples, dose response (AID 2631); type: functional; conditions: Homo sapiens;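 further: confirmatory dose-response assay in RAS-dependent BJ fibroblasts engineered with TERT, LT and ST, with cytotoxicity read by fluorescence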
Vero = test: cells; type: functional; conditions: Chlorocebus sabaeus
Streptococcus = test: GAS UMAA2166 growth inhibition – luminescence, BacTiterGlo, counter-screen for streptokinase expression inhibitor project, dose response (AID 1915); type: functional, organism-based;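 further: potency for reduction of bacterial viability or growth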
[12] = DRD fibroblast viability loss – cell-based, non-viral oncogenic, luminescence, dose response (AID 1934); type: functional; conditions: Homo sapiens
Streptokinase A = target: T3, Streptokinase A (Streptococcus pyogenes serotype M1, UniProt P10520); test: viability-normalized secreted streptokinase activity reduction – plasminogen activation absorbance, OD405, dose response (AID 1914); type: functional, Streptococcus pyogenes M1 GAS;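 further: secreted streptokinase activity via plasminogen activation per viability signal from cell pellet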
T3 sequence (P10520 whole entry): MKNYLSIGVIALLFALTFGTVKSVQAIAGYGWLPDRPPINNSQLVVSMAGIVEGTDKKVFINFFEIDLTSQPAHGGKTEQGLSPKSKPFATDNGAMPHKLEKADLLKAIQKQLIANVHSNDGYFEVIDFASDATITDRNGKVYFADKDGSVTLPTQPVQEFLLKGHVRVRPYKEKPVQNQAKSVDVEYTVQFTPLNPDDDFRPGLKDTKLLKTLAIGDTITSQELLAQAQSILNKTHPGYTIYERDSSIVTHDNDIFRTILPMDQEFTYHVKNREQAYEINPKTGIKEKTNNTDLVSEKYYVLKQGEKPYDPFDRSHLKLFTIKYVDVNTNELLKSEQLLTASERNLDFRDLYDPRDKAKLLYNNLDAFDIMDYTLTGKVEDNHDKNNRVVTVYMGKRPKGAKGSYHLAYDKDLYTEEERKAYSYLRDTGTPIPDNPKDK

Beta Lactamase = Beta Lactamase (Pseudomonas aeruginosa, UniProt Q932Y6);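 further: confirmatory high-throughput screen measuring VIM-2 metallo-beta-lactamase inhibition by epi-absorbance in dose response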
Beta-lactamase [13] = target: Beta-lactamase (Pseudomonas aeruginosa, UniProt Q79MP6);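 further: biochemical dose-response test of metallo-beta-lactamase enzyme inhibition, read out by epi-absorbance; purified recombinant IMP-1 metallo-beta-lactamase with nitrocefin as substrate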
Chain of Beta-lactamase (Pseudomonas aeruginosa, UniProt Q79MP6) (Q79MP6 whole entry): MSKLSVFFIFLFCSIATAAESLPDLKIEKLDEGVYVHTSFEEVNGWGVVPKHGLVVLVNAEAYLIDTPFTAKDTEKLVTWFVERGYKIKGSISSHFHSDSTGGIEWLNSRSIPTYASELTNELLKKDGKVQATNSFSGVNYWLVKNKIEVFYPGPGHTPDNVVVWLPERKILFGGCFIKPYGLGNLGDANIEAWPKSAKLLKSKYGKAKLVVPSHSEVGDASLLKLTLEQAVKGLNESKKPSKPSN

[14] = target: T4, Low molecular weight phosphotyrosine protein phosphatase (Homo sapiens, UniProt P24666); type: functional; conditions: read-out: IC50_Mean
T4 sequence (P24666 whole entry): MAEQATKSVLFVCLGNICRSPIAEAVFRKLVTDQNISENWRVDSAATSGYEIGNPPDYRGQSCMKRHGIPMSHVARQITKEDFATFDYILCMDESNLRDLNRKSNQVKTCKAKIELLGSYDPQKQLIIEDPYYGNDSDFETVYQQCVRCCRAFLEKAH

[15] = target: Tyrosine-protein phosphatase non-receptor type 22 (Homo sapiens, UniProt Q9Y2R2); test: lymphoid phosphatase LYP inhibitors – biochemical, selectivity assay for STEP inhibitor project, dose response (AID 624241); type: functional
Chain of Tyrosine-protein phosphatase non-receptor type 22 (Q9Y2R2 whole entry): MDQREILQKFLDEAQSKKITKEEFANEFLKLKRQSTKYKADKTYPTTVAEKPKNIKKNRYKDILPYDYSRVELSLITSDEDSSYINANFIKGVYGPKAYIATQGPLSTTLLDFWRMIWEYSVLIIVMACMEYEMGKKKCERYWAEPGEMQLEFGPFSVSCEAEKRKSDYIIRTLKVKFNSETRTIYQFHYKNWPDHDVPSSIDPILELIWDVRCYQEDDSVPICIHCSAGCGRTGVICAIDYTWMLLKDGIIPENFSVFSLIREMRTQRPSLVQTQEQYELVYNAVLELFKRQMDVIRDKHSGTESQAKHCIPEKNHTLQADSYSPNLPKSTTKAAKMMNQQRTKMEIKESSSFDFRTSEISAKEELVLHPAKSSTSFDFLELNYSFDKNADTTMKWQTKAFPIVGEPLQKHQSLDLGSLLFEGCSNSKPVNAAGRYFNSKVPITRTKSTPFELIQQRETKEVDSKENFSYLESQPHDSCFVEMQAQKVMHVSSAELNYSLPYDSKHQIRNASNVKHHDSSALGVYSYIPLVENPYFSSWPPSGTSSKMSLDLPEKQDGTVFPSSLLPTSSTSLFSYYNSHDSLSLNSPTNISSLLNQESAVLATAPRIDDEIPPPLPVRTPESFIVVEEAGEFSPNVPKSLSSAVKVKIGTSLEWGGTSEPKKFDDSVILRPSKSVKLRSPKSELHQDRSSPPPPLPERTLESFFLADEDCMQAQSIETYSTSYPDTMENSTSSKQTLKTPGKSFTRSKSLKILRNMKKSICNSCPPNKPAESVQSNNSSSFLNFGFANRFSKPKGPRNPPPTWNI

[16] = target: T4, Low molecular weight phosphotyrosine protein phosphatase; type: functional; conditions: read-out: IC50_Mean; remark: listed apart in the source
[17] = target: T5, Voltage-gated N-type calcium channel alpha-1B subunit/Amyloid beta A4 precursor protein-binding family A member 1 (Homo sapiens, UniProt Q00975+Q02410); type: protein assay
T5 sequence (Q00975 whole entry): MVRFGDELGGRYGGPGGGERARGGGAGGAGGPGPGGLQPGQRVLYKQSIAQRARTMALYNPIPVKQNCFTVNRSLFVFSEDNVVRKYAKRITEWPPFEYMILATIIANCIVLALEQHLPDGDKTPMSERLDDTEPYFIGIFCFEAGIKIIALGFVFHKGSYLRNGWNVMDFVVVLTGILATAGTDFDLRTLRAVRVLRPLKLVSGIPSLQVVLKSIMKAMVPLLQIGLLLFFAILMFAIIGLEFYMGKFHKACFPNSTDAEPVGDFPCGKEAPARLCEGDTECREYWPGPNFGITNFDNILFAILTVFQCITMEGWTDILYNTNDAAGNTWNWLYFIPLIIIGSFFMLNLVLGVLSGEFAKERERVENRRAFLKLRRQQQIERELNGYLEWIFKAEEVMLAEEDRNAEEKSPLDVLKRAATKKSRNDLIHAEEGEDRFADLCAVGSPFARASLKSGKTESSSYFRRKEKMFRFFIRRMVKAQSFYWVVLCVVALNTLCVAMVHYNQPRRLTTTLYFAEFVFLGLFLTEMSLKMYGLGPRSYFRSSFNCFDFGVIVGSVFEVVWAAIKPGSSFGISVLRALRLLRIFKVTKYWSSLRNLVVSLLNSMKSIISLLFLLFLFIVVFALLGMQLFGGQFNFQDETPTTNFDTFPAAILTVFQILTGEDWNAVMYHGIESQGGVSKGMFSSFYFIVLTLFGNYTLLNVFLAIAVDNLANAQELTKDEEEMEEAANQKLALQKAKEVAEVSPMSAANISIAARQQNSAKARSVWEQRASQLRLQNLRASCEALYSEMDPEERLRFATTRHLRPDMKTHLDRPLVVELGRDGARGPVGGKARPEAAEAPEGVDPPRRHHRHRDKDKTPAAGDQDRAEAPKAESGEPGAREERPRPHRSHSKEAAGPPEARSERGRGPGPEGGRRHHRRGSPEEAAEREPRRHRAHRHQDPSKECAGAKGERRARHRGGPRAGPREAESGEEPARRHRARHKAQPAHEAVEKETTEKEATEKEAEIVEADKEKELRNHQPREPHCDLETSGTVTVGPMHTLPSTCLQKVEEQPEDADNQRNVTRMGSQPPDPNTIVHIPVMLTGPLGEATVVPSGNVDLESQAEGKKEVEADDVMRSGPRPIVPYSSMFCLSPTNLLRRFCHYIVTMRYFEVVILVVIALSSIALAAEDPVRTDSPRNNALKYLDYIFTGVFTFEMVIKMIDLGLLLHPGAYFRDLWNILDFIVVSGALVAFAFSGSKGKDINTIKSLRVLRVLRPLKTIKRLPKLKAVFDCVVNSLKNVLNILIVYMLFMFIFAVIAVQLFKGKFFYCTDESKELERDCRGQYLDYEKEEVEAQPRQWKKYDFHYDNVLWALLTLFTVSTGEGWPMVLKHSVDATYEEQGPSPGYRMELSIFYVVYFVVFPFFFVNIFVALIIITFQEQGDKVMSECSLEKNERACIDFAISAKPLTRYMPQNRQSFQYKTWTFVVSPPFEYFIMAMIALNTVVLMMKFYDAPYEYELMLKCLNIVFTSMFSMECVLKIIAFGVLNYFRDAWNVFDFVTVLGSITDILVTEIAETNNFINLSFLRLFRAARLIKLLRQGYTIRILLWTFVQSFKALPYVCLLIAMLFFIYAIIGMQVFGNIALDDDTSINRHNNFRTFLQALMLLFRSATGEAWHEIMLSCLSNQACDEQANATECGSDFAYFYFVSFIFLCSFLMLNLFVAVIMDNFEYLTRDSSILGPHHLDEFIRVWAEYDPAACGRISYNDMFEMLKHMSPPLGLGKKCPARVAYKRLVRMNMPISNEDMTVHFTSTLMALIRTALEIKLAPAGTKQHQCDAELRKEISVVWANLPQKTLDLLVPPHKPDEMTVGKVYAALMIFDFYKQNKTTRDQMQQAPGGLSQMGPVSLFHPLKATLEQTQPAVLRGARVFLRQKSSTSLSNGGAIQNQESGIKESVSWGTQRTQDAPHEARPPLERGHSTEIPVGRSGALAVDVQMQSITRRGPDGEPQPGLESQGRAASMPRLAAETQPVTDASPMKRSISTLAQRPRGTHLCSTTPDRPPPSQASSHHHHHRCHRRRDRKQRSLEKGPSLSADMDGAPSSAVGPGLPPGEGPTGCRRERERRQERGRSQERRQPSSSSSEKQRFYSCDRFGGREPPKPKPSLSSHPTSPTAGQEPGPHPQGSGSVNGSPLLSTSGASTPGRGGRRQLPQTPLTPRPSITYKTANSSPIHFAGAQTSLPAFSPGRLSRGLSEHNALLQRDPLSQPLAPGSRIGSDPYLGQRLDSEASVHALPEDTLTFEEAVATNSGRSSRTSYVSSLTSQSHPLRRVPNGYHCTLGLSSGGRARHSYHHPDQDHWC
T5 sequence (Q02410 whole entry): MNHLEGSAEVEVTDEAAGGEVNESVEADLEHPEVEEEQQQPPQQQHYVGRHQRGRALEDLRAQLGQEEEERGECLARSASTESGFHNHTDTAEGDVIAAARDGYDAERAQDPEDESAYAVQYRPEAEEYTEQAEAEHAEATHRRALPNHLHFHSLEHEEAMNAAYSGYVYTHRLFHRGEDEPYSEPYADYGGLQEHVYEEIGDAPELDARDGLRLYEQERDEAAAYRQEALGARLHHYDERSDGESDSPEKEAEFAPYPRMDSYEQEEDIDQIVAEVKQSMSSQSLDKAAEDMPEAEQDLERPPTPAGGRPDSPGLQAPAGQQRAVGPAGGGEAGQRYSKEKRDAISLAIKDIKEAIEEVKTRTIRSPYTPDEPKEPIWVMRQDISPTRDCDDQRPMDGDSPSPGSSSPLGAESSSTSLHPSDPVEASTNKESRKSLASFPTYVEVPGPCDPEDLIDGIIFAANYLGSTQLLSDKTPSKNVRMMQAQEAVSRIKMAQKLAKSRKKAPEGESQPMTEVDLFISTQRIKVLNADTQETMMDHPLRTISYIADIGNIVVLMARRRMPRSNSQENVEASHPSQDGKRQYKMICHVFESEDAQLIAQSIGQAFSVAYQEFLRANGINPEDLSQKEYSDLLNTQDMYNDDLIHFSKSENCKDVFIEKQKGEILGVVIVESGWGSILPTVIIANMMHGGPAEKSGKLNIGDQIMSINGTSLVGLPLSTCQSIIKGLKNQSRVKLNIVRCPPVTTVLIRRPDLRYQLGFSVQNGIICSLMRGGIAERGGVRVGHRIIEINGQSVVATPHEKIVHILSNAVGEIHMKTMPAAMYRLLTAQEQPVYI

[18] = target: T5, Voltage-gated N-type calcium channel alpha-1B subunit/Amyloid beta A4 precursor protein-binding family A member 1; type: protein assay; remark: listed apart in the source
Beta-lactamase [19] = target: Beta-lactamase (Salmonella choleraesuis (strain SC-B67), UniProt Q5J463)
[20] = target: Dual specificity protein phosphatase 3 (Homo sapiens, UniProt P51452); test: VHR phosphatase inhibition, dose response, selectivity assay for STEP inhibitor project, biochemical (AID 602374); type: functional; conditions: read-out: IC50_Mean
Chain of Dual specificity protein phosphatase 3 (P51452 whole entry): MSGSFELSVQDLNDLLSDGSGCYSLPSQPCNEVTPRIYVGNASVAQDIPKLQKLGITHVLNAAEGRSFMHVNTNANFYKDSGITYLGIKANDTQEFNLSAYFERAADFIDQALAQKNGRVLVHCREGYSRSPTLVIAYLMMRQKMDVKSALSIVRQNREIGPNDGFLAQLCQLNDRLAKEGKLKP

[21] = target: T6, Tyrosine-protein phosphatase non-receptor type 5 (Homo sapiens, UniProt P54829); test: PTPN5 enzyme inhibition – biochemical, fluorescence intensity, uHTS hits, confirmation (AID 602372); type: functional; conditions: read-out: IC50_Mean
T6 sequence (P54829 whole entry): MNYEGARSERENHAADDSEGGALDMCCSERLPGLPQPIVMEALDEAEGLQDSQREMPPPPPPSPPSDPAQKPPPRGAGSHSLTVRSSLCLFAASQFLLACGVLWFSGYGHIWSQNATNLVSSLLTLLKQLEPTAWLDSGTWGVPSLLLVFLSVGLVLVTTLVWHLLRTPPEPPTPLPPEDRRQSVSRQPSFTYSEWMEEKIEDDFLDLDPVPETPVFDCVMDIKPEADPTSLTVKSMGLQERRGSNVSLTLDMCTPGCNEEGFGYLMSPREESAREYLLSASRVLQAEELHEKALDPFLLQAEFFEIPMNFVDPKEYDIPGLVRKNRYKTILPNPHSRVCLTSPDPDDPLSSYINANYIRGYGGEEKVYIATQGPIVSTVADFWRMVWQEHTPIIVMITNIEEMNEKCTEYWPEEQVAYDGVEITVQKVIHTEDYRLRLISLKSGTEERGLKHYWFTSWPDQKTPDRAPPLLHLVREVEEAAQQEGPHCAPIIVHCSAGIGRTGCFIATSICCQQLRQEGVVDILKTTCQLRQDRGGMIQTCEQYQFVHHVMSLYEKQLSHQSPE

[22] = target: T7, Tyrosine-protein phosphatase non-receptor type 11 (Homo sapiens, UniProt Q06124); test: PTPN11 enzyme inhibitors – biochemical, selectivity assay for STEP inhibitor project, dose response (AID 602367); type: functional; conditions: read-out: IC50_Mean
T7 sequence (Q06124 whole entry): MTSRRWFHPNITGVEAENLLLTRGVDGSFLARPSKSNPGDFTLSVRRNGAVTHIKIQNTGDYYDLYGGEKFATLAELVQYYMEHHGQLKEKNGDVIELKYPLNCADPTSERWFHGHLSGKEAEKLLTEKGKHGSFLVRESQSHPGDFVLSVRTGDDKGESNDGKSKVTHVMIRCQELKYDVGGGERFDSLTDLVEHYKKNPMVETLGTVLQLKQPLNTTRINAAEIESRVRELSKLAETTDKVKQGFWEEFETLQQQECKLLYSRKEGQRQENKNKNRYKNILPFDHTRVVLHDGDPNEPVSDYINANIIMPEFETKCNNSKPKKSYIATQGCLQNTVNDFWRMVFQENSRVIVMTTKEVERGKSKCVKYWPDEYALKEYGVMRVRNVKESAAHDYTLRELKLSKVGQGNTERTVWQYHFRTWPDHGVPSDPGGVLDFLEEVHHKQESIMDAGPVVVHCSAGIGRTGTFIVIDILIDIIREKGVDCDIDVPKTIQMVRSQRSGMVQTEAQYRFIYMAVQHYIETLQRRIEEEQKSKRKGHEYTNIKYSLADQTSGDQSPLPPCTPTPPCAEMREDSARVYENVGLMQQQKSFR

[23] = target: Nuclear receptor subfamily 5 group A member 2 (Homo sapiens, UniProt O00482); type: functional, cell-based;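 further: HEK293T cells transfected with LRH-1 and a StAR promoter luciferase reporter; potency for inhibitors that lower LRH-1 driven reporter light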
[24] = nonselective StAR promoter luciferase inhibitors – cell-based, luminescence, luciferase reporter, counter-screen for LRH-1 inverse agonist project, dose response (AID 651969); type: functional
[25] = A Cell Based Secondary Assay To Explore Cytotoxicity of Compounds that Sensitize Mycobacterium Tuberculosis to Beta-Lactam Antibiotics.; type: functional
Steroidogenic factor 1 = Steroidogenic factor 1 (Homo sapiens, UniProt Q13285); test: Counterscreen for inverse agonists of the liver receptor homolog-1 (LRH-1; NR5A2): Luminescence-based cell-based high throughput dose response assay to identify inverse agonists of the Steroidogenic Factor 1 Nuclear Receptor (SF1; NR5A1).; type: functional

Compound: CN(C(=O)COC(=O)CCc1nc(O)c2ccccc2n1)C1CCS(=O)(=O)C1 (stereo unspecified)
- IC50 [1]: > 20 µM (inactive)

Compound: O=C(/C=C/c1ccc([N+](=O)[O-])o1)NNC(=O)c1ccc(F)cc1
- EC50 (BJ [2]): 4.1 µM (inconclusive)
- EC50 (BJ [3]): > 150 µM (inconclusive)
- EC50 (BJ [4]): 7.04 µM (inconclusive)
- EC50 [5]: > 300 µM (not active)
- EC50 [6]: 4.1 µM (inconclusive)
- EC50 [7]: 24.8 µM (active)
- EC50 [8]: 1.24 µM (active)
- IC50 [9]: 1.8 µM (active)
- EC50 [10]: 2.58 µM (active)
- EC50 (BJ [11]): 2.93 µM (active)
- CC50 (Vero): 14.5 µM (active)
- EC50 (Streptococcus): 10.3 µM (active)
- EC50 [12]: 7.26 µM (active)
- EC50 (Streptokinase A): 13.9 µM (active)

Compound: C/C(=N\Nc1ccc(S(N)(=O)=O)cc1[N+](=O)[O-])c1cccs1
- IC50 (Beta Lactamase): > 59.6 µM (inactive)
- IC50 (Beta-lactamase [13]): > 59.6 µM (inactive)
- IC50 [14]: > 80 µM (inactive)
- IC50 [15]: 81.3 µM (inactive)
- IC50 [16]: 38.2 µM (inactive)
- IC50 [17]: 1.42 µM (active)
- IC50 [18]: > 50 µM (inactive)
- IC50 (Beta-lactamase [19]): > 59.6 µM (inactive)
- IC50 [20]: 3.04 µM (active)
- IC50 [21]: 13.9 µM (active)
- IC50 [22]: 2.13 µM (active)

Compound: Cc1onc(NC(=O)c2ccc([N+](=O)[O-])o2)c1Br
- IC50 [23]: 1.33 µM (active)
- IC50 [24]: 35.9 µM (inactive)
- CC50 (Vero): 20.8 µM (active)
- CC50 [25]: 8.19 µM (active)
- IC50 (Steroidogenic factor 1): 0.369 µM (active)
